Experimental data taken from patent EP0154886A2, “Carboxyalkyl dipeptide derivatives, process for their preparation, agents containing them, and their use” (HOECHST AKTIENGESELLSCHAFT, priority 1984, dated 1985).

Assays:
[1] = system: durch intravenöse Gabe von 310 ng Angiotensin hervorgerufene Pressorreaktion; assay: Inhibition of the angiotensin-induced pressor response in the anaesthetised rat after intraduodenal administration; format: in vivo, Ratte; settings: narcotised rat
Procedure: Die erfindungsgemäßen Verbindungen der Formel I sind Hemmer des Angiotensin-Converting-Enzyme (ACE), das die Umwandlung von Angiotensin I in das pressorisch wirksame Angiotensin II katalysiert. […] Besonders interessant ist hierbei der langsame Wirkungseintritt und die lange Wirkdauer der Verbindung. So beobachtet man bei intraduodenaler Gabe von 0,3 mg/kg Körpergewicht eine Hemmung um 15 % nach 10 min, 30 % nach 20 min, 60 % nach 30 min und 70 % nach 45 min; die Wirkung hält länger als 6 Stunden an.

[2] = target: Angiotensin-Converting-Enzyme (ACE) (Homo sapiens, UniProt P12821); assay: ACE inhibition in vitro assay (Biochem. Biophys. Acta, 206, 136 (1970)); format: biochemical
Sequence of Angiotensin-Converting-Enzyme (ACE) (P12821 30-1306, species assumed): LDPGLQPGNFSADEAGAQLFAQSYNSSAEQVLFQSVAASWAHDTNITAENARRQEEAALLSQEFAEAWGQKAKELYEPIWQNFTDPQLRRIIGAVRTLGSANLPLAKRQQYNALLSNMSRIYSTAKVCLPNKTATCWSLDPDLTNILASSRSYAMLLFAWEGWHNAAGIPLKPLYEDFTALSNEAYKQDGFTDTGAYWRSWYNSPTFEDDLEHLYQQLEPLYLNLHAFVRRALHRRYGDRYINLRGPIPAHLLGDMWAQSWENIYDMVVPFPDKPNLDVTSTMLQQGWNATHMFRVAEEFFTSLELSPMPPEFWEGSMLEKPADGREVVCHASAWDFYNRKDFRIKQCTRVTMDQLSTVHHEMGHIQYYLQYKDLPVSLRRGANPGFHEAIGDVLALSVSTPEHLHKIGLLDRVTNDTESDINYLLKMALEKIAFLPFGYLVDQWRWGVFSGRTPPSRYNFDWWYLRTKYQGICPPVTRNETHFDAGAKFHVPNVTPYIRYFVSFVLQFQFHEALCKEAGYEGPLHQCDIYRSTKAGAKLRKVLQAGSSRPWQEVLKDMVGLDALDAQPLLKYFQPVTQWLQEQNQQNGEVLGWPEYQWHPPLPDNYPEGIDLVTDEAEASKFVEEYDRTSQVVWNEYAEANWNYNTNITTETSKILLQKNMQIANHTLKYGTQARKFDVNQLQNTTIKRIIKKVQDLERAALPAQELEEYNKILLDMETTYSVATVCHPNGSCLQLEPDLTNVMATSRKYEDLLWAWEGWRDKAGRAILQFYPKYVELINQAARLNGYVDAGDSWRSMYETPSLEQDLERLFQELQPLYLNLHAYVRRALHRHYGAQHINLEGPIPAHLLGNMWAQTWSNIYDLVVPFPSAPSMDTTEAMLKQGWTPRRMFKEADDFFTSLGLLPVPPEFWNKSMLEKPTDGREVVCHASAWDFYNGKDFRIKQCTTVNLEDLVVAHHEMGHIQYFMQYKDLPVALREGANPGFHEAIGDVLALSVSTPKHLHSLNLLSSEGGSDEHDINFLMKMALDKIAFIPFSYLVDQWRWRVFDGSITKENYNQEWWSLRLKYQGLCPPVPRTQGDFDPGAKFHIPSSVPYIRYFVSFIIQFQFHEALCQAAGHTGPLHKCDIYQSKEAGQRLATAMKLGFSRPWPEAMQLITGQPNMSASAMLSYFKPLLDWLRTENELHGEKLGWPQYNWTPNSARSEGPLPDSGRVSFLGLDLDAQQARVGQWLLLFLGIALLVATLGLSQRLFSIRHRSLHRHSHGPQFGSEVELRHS

NCCCC[C@H](N[C@@H](CCC1CCCCC1)C(=O)O)C(=O)N1[C@H](C(=O)O)C[C@@H]2CCCC[C@@H]21 [N-(1-S-CarboxY-3-cyclohexyl-propyl)-S-lysyl-2S,3aS,7aS-octahydroindol-2-carbonsäure]
Hemmung ([1]; intraduodenal 0,3 mg/kg Körpergewicht, after 10 min): 15%
Hemmung ([1]; intraduodenal 0,3 mg/kg Körpergewicht, after 20 min): 30%
Hemmung ([1]; intraduodenal 0,3 mg/kg Körpergewicht, after 30 min): 60%
Hemmung ([1]; intraduodenal 0,3 mg/kg Körpergewicht, after 45 min): 70%
Wirkdauer (die Wirkung hält an) ([1]; intraduodenal 0,3 mg/kg Körpergewicht, duration of effect): > 6 Stunden
Hemmwirkung auf die Pressorreaktion ([1]; intraduodenal administration, 310 ng Angiotensin i.v., qualitative): starke Hemmwirkung
IC50 [2]: 3.4 nM
